This note sets out measurements from patent US7625908B2, “Quinazoline derivatives” (AstraZeneca AB, priority 2003, dated 2009).

For assay [1], the target named is T1, erbB2 in a MCF7 derived cell line (Clone 24 cells) (Homo sapiens, UniProt P04626).
T1 construct: to give a cell line that overexpresses full length wild type erbB2 protein; expressed in transfected cells
Kind of assay: Clone 24 phospho-erbB2 cell assay, Test (d). The assay is classed as cell-based. The settings on record: 4 hours, read-out: IC50 (μM) Test (d): Inhibition of erbB2 tyrosine kinase protein phosphorylation. The protocol: d) Clone 24 Phospho-erbB2 Cell Assay
This immunofluorescence end point assay measures the ability of a test compound to inhibit the phosphorylation of erbB2 in a MCF7 (breast carcinoma) derived cell line which was generated by transfecting MCF7 cells with the full length erbB2 gene using standard methods to give a cell line that overexpresses full length wild type erbB2 protein (hereinafter ‘Clone 24’ cells).
Clone 24 cells were cultured in Growth Medium (phenol red free Dulbecco's modified Eagle's medium (DMEM) containing 10% foetal bovine serum, 2 mM glutamine and 1.2 mg/ml G418) in a 7.5% CO2 air incubator at 37° C. Cells were harvested from T75 stock flasks by washing once in PBS (phosphate buffered saline, pH7.4, Gibco No. 10010-015) and harvested using 2 mls of Trypsin (1.25 mg/ml)/ethylaminediaminetetraacetic acid (EDTA) (0.8 mg/ml) solution. The cells were resuspended in Growth Medium. Cell density was measured using a haemocytometer and viability was calculated using Trypan Blue solution before being further diluted in Growth Medium and seeded at a density of 1×10^4 cells per well (in 10 ul) into clear bottomed 96 well plates (Packard, No. 6005182).
3 days later, Growth Medium was removed from the wells and replaced with 100 ul Assay Medium (phenol red free DMEM, 2 mM glutamine, 1.2 mg/ml G418) either with or without erbB inhibitor compound. Plates were returned to the incubator for 4 hours and then 20 μl of 20% formaldehyde solution in PBS was added to each well and the plate was left at room temperature for 30 minutes. This fixative solution was removed with a multichannel pipette, 100 μl of PBS was added to each well and then removed with a multichannel pipette and then 50 μl PBS was added to each well. Plates were then sealed and stored for up to 2 weeks at 4° C.
Immunostaining was performed at room temperature. […]
The Fluorescence signal is each well was measured using an Acumen Explorer Instrument (Acumen Bioscience Ltd.), a plate reader that can be used to rapidly quantitate features of images generated by laser-scanning. […]

Another assay has as its target T2, erbB2 tyrosine kinase (Homo sapiens, UniProt P04626).
T2 construct: Recombinant intracellular fragments of EGFR, erbB2 and erbB4; made in house; host or cells: baculovirus/Sf21 insect cells (cleared lysate used)
Kind of assay: Protein tyrosine kinase phosphorylation assay, Test (a), erbB2. The assay is classed as biochemical. The settings on record: recombinant intracellular fragment, ATP at Km; read-out: IC50 (μM) Test (a): Inhibition of erbB2 tyrosine kinase protein phosphorylation. How it is done:
(§1) a) Protein Tyrosine Kinase phosphorylation Assays
(§2) This test measures the ability of a test compound to inhibit the phosphorylation of a tyrosine containing polypeptide substrate by an erb receptor tyrosine kinase enzyme.
(§3) Recombinant intracellular fragments of EGFR, erbB2 and erbB4 (accession numbers X00588, X03363 and L07868 respectively) were cloned and expressed in the baculovirus/Sf21 system. Lysates were prepared from these cells by treatment with ice-cold lysis buffer (20 mM N-2-hydroxyethylpiperizine-N′-2-ethanesulfonic acid (HEPES) pH7.5, 150 mM NaCl, 10% glycerol, 1% Triton X-100, 1.5 mM MgCl2, 1 mM ethylene glycol-bis(β-aminoethyl ether) N′,N′,N′,N′-tetraacetic acid (EGTA), plus protease inhibitors and then cleared by centrifugation.
(§4) Constitutive kinase activity of these recombinant proteins was determined by their ability to phosphorylate a synthetic peptide (made up of a random co-polymer of Glutamic Acid, Alanine and Tyrosine in the ratio of 6:3:1). Specifically, Maxisorb™ 96-well immunoplates were coated with synthetic peptide (0.2 μg of peptide in a 200 μl phosphate buffered saline (PBS) solution and incubated at 4° C. overnight). Plates were washed in 50 mM HEPES pH 7.4 at room temperature to remove any excess unbound synthetic peptide. […]
(§5) The immobilised phospho-peptide product of the reaction was detected by immunological methods. […] After further washing, HRP activity in each well of the plate was measured colorimetrically using 22′-Azino-di-[3-ethylbenzthiazoline sulfonate (6)]diammonium salt crystals (ABTS™ from Roche) as a substrate.
(§6) Quantification of colour development and thus enzyme activity was achieved by the measurement of absorbance at 405 nm on a Molecular Devices ThermoMax microplate reader. Kinase inhibition for a given compound was expressed as an IC50 value. […] The range of phosphorylation was calculated from the positive (vehicle plus ATP) and negative (vehicle minus ATP) control values.

The target of another assay is T3, EGFR tyrosine kinase (Homo sapiens, UniProt P00533).
T3 construct: Recombinant intracellular fragments of EGFR, erbB2 and erbB4; made in house; host or cells: baculovirus/Sf21 insect cells (cleared lysate used)
T3 sequence (P00533 669-1210 limits assumed): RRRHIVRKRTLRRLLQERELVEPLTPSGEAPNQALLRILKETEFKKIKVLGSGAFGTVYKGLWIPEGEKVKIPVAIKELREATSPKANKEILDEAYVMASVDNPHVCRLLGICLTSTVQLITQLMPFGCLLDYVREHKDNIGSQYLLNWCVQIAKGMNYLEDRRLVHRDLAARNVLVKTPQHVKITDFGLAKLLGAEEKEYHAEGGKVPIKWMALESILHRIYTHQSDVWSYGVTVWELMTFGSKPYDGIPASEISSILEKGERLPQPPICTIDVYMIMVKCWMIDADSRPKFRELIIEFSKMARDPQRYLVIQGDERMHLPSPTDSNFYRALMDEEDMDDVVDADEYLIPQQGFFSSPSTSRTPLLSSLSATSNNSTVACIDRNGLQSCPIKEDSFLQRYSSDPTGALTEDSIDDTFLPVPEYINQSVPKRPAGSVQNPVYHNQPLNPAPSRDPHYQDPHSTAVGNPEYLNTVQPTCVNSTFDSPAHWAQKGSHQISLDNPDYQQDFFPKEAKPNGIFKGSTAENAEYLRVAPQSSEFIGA
Kind of assay: Protein tyrosine kinase phosphorylation assay, Test (a), EGFR. The class given is biochemical. The following applies: recombinant intracellular fragment, ATP at Km; read-out: IC50 (μM) Test (a): Inhibition of EGFR tyrosine kinase protein phosphorylation. How it is done: as §1, §2, §3, §4, §5, §6

What is called IC50 is the concentration at which inhibition is half-maximal.

Structures are written as SMILES.

T1 sequence (P04626 23-1255): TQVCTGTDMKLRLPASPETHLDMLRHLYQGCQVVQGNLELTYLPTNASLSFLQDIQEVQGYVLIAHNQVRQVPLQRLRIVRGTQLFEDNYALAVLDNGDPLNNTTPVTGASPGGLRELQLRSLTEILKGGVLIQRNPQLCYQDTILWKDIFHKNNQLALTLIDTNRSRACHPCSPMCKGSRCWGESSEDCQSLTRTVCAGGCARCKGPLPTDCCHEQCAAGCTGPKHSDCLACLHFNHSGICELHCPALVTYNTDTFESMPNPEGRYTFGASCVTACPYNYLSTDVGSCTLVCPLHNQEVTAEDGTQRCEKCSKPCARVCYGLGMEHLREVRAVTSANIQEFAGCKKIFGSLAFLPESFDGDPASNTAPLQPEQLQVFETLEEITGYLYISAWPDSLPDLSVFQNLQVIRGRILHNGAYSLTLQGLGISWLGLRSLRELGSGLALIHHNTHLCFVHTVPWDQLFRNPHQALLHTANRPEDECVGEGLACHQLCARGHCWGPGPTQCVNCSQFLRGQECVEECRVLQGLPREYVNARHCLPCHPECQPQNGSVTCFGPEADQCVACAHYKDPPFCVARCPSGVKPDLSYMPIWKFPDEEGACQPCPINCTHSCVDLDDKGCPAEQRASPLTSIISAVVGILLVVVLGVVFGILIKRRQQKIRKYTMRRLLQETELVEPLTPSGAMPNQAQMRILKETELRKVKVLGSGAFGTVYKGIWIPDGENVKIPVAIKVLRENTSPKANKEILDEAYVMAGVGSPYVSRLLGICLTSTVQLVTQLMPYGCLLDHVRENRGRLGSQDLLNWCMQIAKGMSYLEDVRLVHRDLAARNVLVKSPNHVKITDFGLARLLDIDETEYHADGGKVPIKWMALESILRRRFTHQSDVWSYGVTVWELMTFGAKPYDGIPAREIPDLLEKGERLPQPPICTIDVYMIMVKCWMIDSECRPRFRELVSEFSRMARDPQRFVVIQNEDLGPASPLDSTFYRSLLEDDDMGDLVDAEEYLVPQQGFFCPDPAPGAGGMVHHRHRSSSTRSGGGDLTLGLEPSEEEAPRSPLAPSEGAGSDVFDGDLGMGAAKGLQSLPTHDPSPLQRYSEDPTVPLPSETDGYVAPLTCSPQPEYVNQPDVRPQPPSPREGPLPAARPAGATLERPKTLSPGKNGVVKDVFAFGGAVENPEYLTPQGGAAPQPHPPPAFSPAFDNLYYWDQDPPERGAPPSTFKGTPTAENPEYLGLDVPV
T2 sequence (P04626 676-1255 limits assumed): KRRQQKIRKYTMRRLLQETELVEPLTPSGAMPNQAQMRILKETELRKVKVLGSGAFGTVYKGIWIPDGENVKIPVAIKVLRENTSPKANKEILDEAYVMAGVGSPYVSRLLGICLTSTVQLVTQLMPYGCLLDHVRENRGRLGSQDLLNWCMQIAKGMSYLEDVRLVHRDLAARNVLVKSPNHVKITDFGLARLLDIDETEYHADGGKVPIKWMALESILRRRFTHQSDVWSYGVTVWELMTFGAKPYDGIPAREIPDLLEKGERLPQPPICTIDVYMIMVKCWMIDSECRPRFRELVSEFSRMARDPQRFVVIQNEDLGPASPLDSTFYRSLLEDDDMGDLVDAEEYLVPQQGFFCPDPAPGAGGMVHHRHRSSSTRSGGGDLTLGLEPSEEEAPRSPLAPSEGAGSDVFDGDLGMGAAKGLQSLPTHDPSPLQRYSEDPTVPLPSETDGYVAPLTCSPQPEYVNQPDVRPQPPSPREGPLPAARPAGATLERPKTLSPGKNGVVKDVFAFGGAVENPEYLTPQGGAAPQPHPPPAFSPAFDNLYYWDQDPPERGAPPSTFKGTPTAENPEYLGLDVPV

In the case of `O=C(CO)N(CCOc1cccc2ncnc(Nc3ccc(OCc4ccccn4)c(Cl)c3)c12)C1CCOCC1` [Example 21, N-{2-[(4-{[3-Chloro-4-(pyridin-2-ylmethoxy)phenyl]amino}quinazolin-5-yl)oxy]ethyl}-2-hydroxy-N-(tetrahydro-2H-pyran-4-yl)acetamide], the IC50 came out at 0.009 µM in assay [1], 0.002 µM at erbB2 tyrosine kinase and 0.414 µM at EGFR tyrosine kinase.

Turning to `CC(=O)N(C)C[C@@H](C)Oc1cccc2ncnc(Nc3ccc(Oc4ccc(C)nc4)c(C)c3)c12` [Example 104, N-Methyl-N-((2R)-2-{[4-({3-methyl-4-[(6-methylpyridin-3-yl)oxy]phenyl}amino)quinazolin-5-yl]oxy}propyl)acetamide], the results for the half-maximal inhibitory concentration (IC50) (in assay [1]; on erbB2 tyrosine kinase; at EGFR tyrosine kinase) were 0.021 µM, 0.017 µM and 1.88 µM, respectively.

As to `CC(O)C(=O)N(C)CCOc1cccc2ncnc(Nc3ccc(OCc4ccccn4)c(Cl)c3)c12` (stereo not drawn) [Example 28, N-{2-[(4-{[3-Chloro-4-(pyridin-2-ylmethoxy)phenyl]amino}quinazolin-5-yl)oxy]ethyl}-2-hydroxy-N-methylpropanamide], the concentration for half-maximal inhibition (IC50) in assay [1] amounted to 0.112 µM; at erbB2 tyrosine kinase it was 0.002 µM; at EGFR tyrosine kinase, 0.197 µM.
